From patent US5356794A, “Purified enzymatic preparation derived from chromobacterium violaceum, method for preparing it and its use in the production of α, β-dehydrotryptophanyl-peptides” (priority 1991, dated 1994)

Tests used:
Format in all cases: biochemical, Chromobacterium violaceum
L-Trp 2',3'-oxidase [1] = assay: Specificity of the reaction (conversion of amino acid derivatives and indole compounds); conditions: for effect of conversion of substrates with free α-amino group on the enzyme: after a few minutes, absorbance at 320 nm rises then decreases
Text: No conversion could be observed for the aromatic amino acids: N-acetyl-L-phenylalaninamide and N-acetyl-L-tyrosinamide. The same is the case when the indole ring is substituted: 5-hydroxyl L-Trp, N-formyl L-Trp and for the isomers of the D series: D-tryptophan and N-acetyl-D-tryptophan.
This phenomenon is much more rapid when the α-carboxyl functional group is not substituted (L-Trp, comp. I), and results in the formation of an unstable imine (II) which is hydrolysed to give rise to the α-keto compounds (indole-3-pyruvic acid (III) and its amide homologue respectively)--FIG. 6--. It is therefore preferable to block the α-amino functional group so as to avoid any isomerisation phenomenon and to ensure greater stability of the dehydro compound.

L-Trp 2',3'-oxidase [2] = assay: Kinetics of dehydrogenation of substrates by purified L-Trp 2',3'-oxidase (appearance of dehydro product at 330 nm); conditions: substrate of L-Trp 2',3'-oxidase, in the presence of catalase
Description: Measurements of the specific activity of the enzyme as well as all the kinetic experiments in the steady state, were performed under the standard conditions defined below:
Substrate: 1 mMN-acetyl-L-tryptophanamide (NATA)
Buffer: 50 mM succinate, pH 5.5
by directly monitoring the appearance of the dehydro product at 330 nm (FIG. 3). The specific activity (As) of fraction Q1 is calculated on the basis of a molar extinction coefficient at 330 nm of 18.8 mM^-1.cm^-1 determined in the laboratory (against ε330 =19.89 mM^-1.cm^-1 in the literature; TAKAI et al. mentioned above). NATA, which represents the smallest peptide chain possible, is used as reference substrate for the enzymatic reaction. The specific activity of the preparation (As) is estimated at 39.5±3.1 units for NATA (an enzymatic unit represents a mole of product formed per second per mole of heme).
The dehydrogenation of NATA was monitored as a function of the pH (pH 3-5, 6-8) at a temperature of 30° C. in 50 mM succinate buffer, pH 5.6. The reaction products are analysed and purified by reversed-phase HPLC and then freeze-dried and analysed by mass spectrometry (desorption by chemical ionisation: DCI). ΔNATA is the only product of the enzymatic reaction which is characterised by HPLC (single peak, γmax 333 nm) and by mass spectrophotometry (MH^+ =244).
The procedure is as in Example 1.7).
All the reactions were performed in the presence of catalase. In each case, the kinetic constants (Kcat and Km) are calculated so as to evaluate the efficiency of the enzyme for each type of substrate.

L-Trp 2',3'-oxidase [3] = assay: Conversion of Trp in proteins by L-Trp 2',3'-oxidase in 24 hours; conditions: standard conditions, E/S ≈ 1/1000, values given as a guide
Description: (*): Values given as a guide, giving an idea of the conversion of Trp in
the proteins in 24 hours, under the standard conditions defined in Exampl
As specified above, the accessibility of the tryptophanyl residues, both with respect to the indolyl ring and with respect to the Cα and Cβ protons, plays a major role.

N[C@@H](Cc1c[nH]c2ccc(O)cc12)C(=O)O [5-hydroxyl L-Trp]
conversion by the enzyme (specificity of the reaction) (L-Trp 2',3'-oxidase [1]): No conversion

N[C@H](Cc1c[nH]c2ccccc12)C(=O)O [D-tryptophan]
conversion by the enzyme (specificity of the reaction) (L-Trp 2',3'-oxidase [1]): No conversion

N[C@@H](Cc1c[nH]c2ccccc12)C(=O)O [L-tryptophan]
effect of conversion of substrates with free α-amino group on the enzyme (L-Trp 2',3'-oxidase [1]): complete inhibition of the enzyme

NC(=O)[C@@H](N)Cc1c[nH]c2ccccc12 [L-tryptophanamide]
effect of conversion of substrates with free α-amino group on the enzyme (L-Trp 2',3'-oxidase [1]): complete inhibition of the enzyme

CC(=O)N[C@H](Cc1c[nH]c2ccccc12)C(=O)O [N-acetyl-D-tryptophan]
conversion by the enzyme (specificity of the reaction) (L-Trp 2',3'-oxidase [1]): No conversion

O=CN[C@@H](Cc1c[nH]c2ccccc12)C(=O)O [N-formyl L-Trp]
conversion by the enzyme (specificity of the reaction) (L-Trp 2',3'-oxidase [1]): No conversion

CSCC[C@H](NC(=O)[C@H](Cc1c[nH]c2ccccc12)NC(=O)CCNC(=O)OC(C)(C)C)C(=O)N[C@@H](CC(=O)O)C(=O)N[C@@H](Cc1ccccc1)C(N)=O [Pentagastrin]
Kcat/Km (L-Trp 2',3'-oxidase [2]): 10^6 M^-1.s^-1
Kcat (L-Trp 2',3'-oxidase [2]; 30° C., 50 mM succinate buffer): 32 s⁻¹
Km (L-Trp 2',3'-oxidase [2]; 30° C., 50 mM succinate buffer): 26 µM

O=C(O)CCc1c[nH]c2ccccc12 [indole-3-propionic acid]
conversion by the enzyme (specificity of the reaction) (L-Trp 2',3'-oxidase [1]): oxidised to indole-3-acrylic acid

NCCc1c[nH]c2ccccc12 [tryptamine]
conversion by the enzyme (specificity of the reaction) (L-Trp 2',3'-oxidase [1]): no reaction

β-Lactoglobulin: protein substrate, 162 residues, Trp19-Trp51, 32 kDa
conversion of Trp in the proteins (L-Trp 2',3'-oxidase [3]): 2 % of conversion

B1: Catalase: protein substrate, 506 residues, six Trp, 232 kDa (EC 1.11.1.6) (protein, UniProt P00432 2-527, looked up)
Catalase: ADNRDPASDQMKHWKEQRAAQKPDVLTTGGGNPVGDKLNSLTVGPRGPLLVQDVVFTDEMAHFDRERIPERVVHAKGAGAFGYFEVTHDITRYSKAKVFEHIGKRTPIAVRFSTVAGESGSADTVRDPRGFAVKFYTEDGNWDLVGNNTPIFFIRDALLFPSFIHSQKRNPQTHLKDPDMVWDFWSLRPESLHQVSFLFSDRGIPDGHRHMNGYGSHTFKLVNANGEAVYCKFHYKTDQGIKNLSVEDAARLAHEDPDYGLRDLFNAIATGNYPSWTLYIQVMTFSEAEIFPFNPFDLTKVWPHGDYPLIPVGKLVLNRNPVNYFAEVEQLAFDPSNMPPGIEPSPDKMLQGRLFAYPDTHRHRLGPNYLQIPVNCPYRARVANYQRDGPMCMMDNQGGAPNYYPNSFSAPEHQPSALEHRTHFSGDVQRFNSANDDNVTQVRTFYLKVLNEEQRKRLCENIAGHLKDAQLFIQKKAVKNFSDVHPEYGSRIQALLDKYNEEKPKNAVHTYVQHGSHLSAREKANL
conversion of Trp in the proteins (L-Trp 2',3'-oxidase [3]): 12 % of conversion
